Test results reported in US20250011368A1, “DLL3 TARGETING PEPTIDES AND CONSTRUCTS THEREOF” (MARIANA ONCOLOGY INC., priority 2023, published 2025).
Numbered stars: 1 amine (or outer) side, 2 acyl side, 3 side chain; on linkers, the order of the positions; unused ones are H or OH. Bridge positions count the residues as written; N and C are the ends. Square brackets hold non-standard residues; d marks the D form. Side chains are listed from the residue outwards. Peptide text beside a SMILES is read from it. I, II: the chains in the order shown. * marks the point of attachment. ξ: configuration not given here. DOTA = O=C(O)CN1CCN(CC(=O)O)CCN(CC(=O)*)CCN(CC(=O)O)CC1; Trp(7-Me) = Cc1cccc2c(C[C@H](N)C(=O)O)c[nH]c12; γGlu = O=C(O)[C@H](CCC(=O)[*:2])N[*:1]; 2Nal = N[C@@H](Cc1ccc2ccccc2c1)C(=O)O; αMeI = CC[C@H](C)[C@](C)(N)C(=O)O; Trx = NC[C@H]1CC[C@H](C(=O)O)CC1; 3Pal = N[C@@H](Cc1cccnc1)C(=O)O; ξαMeD = CC(N)(CC(=O)O)C(=O)O; Lauroyl = CCCCCCCCCCCC(=O)*; 4Amb = NCc1ccc(C(=O)O)cc1; Orn = NCCC[C@H](N)C(=O)O; Ahx = NCCCCCC(=O)O; Sar = CNCC(=O)O

molecular target: T1, human DLL3 (Homo sapiens, UniProt Q9NYJ7); experiment: Affinity determination by Surface Plasmon Resonance (SPR); format: binding; conditions: 25° C., biotinylated human DLL3 immobilized on streptavidin sensor chip, 1:1 binding model; read-out: SPR KD
T1 sequence (Q9NYJ7 27-618): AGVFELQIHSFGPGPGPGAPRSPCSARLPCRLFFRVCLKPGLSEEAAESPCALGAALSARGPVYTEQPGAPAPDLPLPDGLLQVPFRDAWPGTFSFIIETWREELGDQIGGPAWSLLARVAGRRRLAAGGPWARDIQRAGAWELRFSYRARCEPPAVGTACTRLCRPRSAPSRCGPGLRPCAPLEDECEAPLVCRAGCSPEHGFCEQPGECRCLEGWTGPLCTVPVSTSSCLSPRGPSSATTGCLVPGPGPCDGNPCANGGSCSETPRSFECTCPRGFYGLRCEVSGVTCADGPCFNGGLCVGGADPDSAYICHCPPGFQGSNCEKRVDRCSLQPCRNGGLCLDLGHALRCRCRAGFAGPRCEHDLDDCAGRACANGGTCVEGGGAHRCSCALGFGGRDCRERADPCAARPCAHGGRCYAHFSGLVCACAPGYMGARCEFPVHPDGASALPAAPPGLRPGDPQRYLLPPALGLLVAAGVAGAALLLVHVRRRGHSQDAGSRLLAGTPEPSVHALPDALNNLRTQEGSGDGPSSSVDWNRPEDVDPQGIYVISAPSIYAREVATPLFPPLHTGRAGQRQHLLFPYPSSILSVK
Method in brief: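 Kinetic and affinity constants were derived by fitting sensorgrams to a 1:1 binding model. Graded compound concentrations flowed at 100 μL/minute in 20 mM phosphate running buffer with 2% DMSO over streptavidin-immobilized biotinylated human DLL3, reference-subtracted.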

Structure (SMILES) | Kd [nM]
CC[C@H](C)[C@H](NC(=O)[C@@H](NC(=O)[C@H](Cc1c[nH]c2ccccc12)NC(C)=O)[C@@H](C)O)C(=O)N[C@H]1CSSC[C@@H](C(=O)N[C@@H](Cc2c[nH]c3ccccc23)C(=O)N2CCC[C@H]2C(=O)N[C@H](CCCCNC(=O)CNC(=O)CNC(=O)[C@H](CO)NC(=O)CNC(=O)CNC(=O)[C@H](CO)NC(=O)CN2CCN(CC(=O)O)CCN(CC(=O)O)CCN(CC(=O)O)CC2)C(N)=O)NC(=O)[C@H](CC(=O)O)NC(=O)[C@H](Cc2c[nH]cn2)NC(=O)[C@H](Cc2ccc3ccccc3c2)NC(=O)[C@H](CC(N)=O)NC(=O)[C@H](CC(N)=O)NC1=O [compound 365, Ac-W-T-I-C(3)-N-N-(2Nal)-H-D-C(3)-W-P-[D-Lys(G-G-S-G-G-S-DOTA)]-NH2] (I: Ac-WTICNN[2Nal]HDCWP[dK]-NH2 / II: {DOTA}-SGGSGG; disulfide I:4-I:10; amide I:13-II:C) | < 1
CCCCCCCCCCCC(=O)NCCCC[C@@H]1NC(=O)[C@H](Cc2ccc3ccccc3c2)NC(=O)[C@H](CC(N)=O)NC(=O)[C@H](CC(N)=O)NC(=O)[C@@H](NC(=O)[C@@H](NC(=O)[C@@H](NC(=O)[C@H](Cc2c[nH]c3ccccc23)NC(C)=O)[C@@H](C)O)[C@@H](C)CC)CSSC[C@@H](C(=O)N[C@@H](Cc2c[nH]c3ccccc23)C(=O)N2CCC[C@H]2C(=O)N[C@H](CCCCNC(=O)CC[C@H](NC(=O)CC[C@H](NC(=O)CC[C@H](NC(=O)CN2CCN(CC(=O)O)CCN(CC(=O)O)CCN(CC(=O)O)CC2)C(=O)O)C(=O)O)C(=O)O)C(N)=O)NC(=O)[C@H](CC(=O)O)NC1=O [compound 368, Ac-W-T-I-C(3)-N-N-(2Nal)-K(C12)-D-C(3)-W-P-[D-Lys(gE-gE-gE-DOTA)]-NH2] (Ac-WTICNN[2Nal]K(Lauroyl)DCWP[dK]([γGlu-γGlu-γGlu-DOTA])-NH2; disulfide 4-10) | 1 to 10
CCCCCCCCCCCC(=O)NCCCC[C@@H]1NC(=O)[C@H](Cc2ccc3ccccc3c2)NC(=O)[C@H](CC(N)=O)NC(=O)[C@H](CC(N)=O)NC(=O)[C@@H](NC(=O)[C@@H](NC(=O)[C@@H](NC(=O)[C@H](Cc2c[nH]c3c(C)cccc23)NC(C)=O)[C@@H](C)O)[C@@H](C)CC)CSSC[C@@H](C(=O)N[C@@H](Cc2c[nH]c3ccccc23)C(=O)N2CCC[C@H]2C(=O)N[C@H](CCCCNC(=O)CN2CCN(CC(=O)O)CCN(CC(=O)O)CCN(CC(=O)O)CC2)C(N)=O)NC(=O)[C@H](CC(=O)O)NC1=O [compound 369, Ac-(7Me-W)-T-I-C(3)-N-N-(2Nal)-H-D-C(3)-W-P-[D-Lys(DOTA)]-NH2] (Ac-[Trp(7-Me)]TICNN[2Nal]K(Lauroyl)DCWP[dK](DOTA)-NH2; disulfide 4-10) | 1 to 10
CC[C@H](C)[C@H](NC(=O)[C@@H](NC(=O)[C@H](Cc1c[nH]c2ccccc12)NC(C)=O)[C@@H](C)O)C(=O)N[C@H]1CSSC[C@@H](C(=O)N[C@@H](Cc2c[nH]c3ccccc23)C(=O)N2CCC[C@H]2C(=O)N[C@H](CCCCNC(=O)CN2CCN(CC(=O)O)CCN(CC(=O)O)CCN(CC(=O)O)CC2)C(=O)O)NC(=O)[C@H](CC(=O)O)NC(=O)[C@H](CCCN)NC(=O)[C@H](Cc2ccc3ccccc3c2)NC(=O)[C@H](CC(N)=O)NC(=O)[C@H](CC(N)=O)NC1=O [compound 376, Ac-W-T-I-C(3)-N-N-(2Nal)-Orn-D-C(3)-W-P-[D-Lys(DOTA)]-NH2] (Ac-WTICNN[2Nal][Orn]DCWP[dK](DOTA)-OH; disulfide 4-10) | < 1
CC[C@H](C)[C@](C)(NC(=O)[C@@H](NC(=O)[C@H](Cc1c[nH]c2ccccc12)NC(C)=O)[C@@H](C)O)C(=O)N[C@H]1CSSC[C@@H](C(=O)N[C@@H](Cc2c[nH]c3ccccc23)C(=O)N2CCC[C@H]2C(=O)N[C@H](CCCCNC(=O)CN2CCN(CC(=O)O)CCN(CC(=O)O)CCN(CC(=O)O)CC2)C(N)=O)NC(=O)[C@H](CC(=O)O)NC(=O)[C@H](Cc2cnc[nH]2)NC(=O)[C@H](Cc2c[nH]c3ccccc23)NC(=O)[C@H](CC(N)=O)NC(=O)[C@H](CC(N)=O)NC1=O [compound 409, Ac-W-T-(aMe-I)-C(3)-N-N-W-H-D-C(3)-W-P-[D-Lys(DOTA)]-NH2] (Ac-WT[αMeI]CNNWHDCWP[dK](DOTA)-NH2; disulfide 4-10) | 10 to 100
CC[C@H](C)[C@H](NC(=O)[C@@H](NC(=O)[C@H](Cc1c[nH]c2ccccc12)NC(C)=O)[C@@H](C)O)C(=O)N[C@H]1CSSC[C@@H](C(=O)N[C@@H](Cc2c[nH]c3ccccc23)C(=O)N2CCC[C@H]2C(=O)N[C@H](CCCCNC(=O)CN2CCN(CC(=O)O)CCN(CC(=O)O)CCN(CC(=O)O)CC2)C(N)=O)NC(=O)C(C)(CC(=O)O)NC(=O)[C@H](Cc2cnc[nH]2)NC(=O)[C@H](Cc2c[nH]c3ccccc23)NC(=O)[C@H](CC(N)=O)NC(=O)[C@H](CC(N)=O)NC1=O (stereo partly drawn) [compound 410, Ac-W-T-I-C(3)-N-N-W-H-(aMe-D)-C(3)-W-P-[D-Lys(DOTA)]-NH2] (Ac-WTICNNWH[ξαMeD]CWP[dK](DOTA)-NH2; disulfide 4-10) | 1 to 10

Continued, values first:

Kd [nM] | Structure (SMILES)
< 1 | CC[C@H](C)[C@H](NC(=O)[C@@H](NC(=O)[C@H](Cc1c[nH]c2ccccc12)NC(C)=O)[C@@H](C)O)C(=O)N[C@H]1CSSC[C@@H](C(=O)N[C@@H](Cc2c[nH]c3ccccc23)C(=O)N2CCC[C@H]2C(=O)N[C@H](CCCCNC(=O)CN2CCN(CC(=O)O)CCN(CC(=O)O)CCN(CC(=O)O)CC2)C(N)=O)NC(=O)[C@H](CC(=O)O)NC(=O)[C@H](Cc2cccnc2)NC(=O)[C@H](Cc2ccc3ccccc3c2)NC(=O)[C@H](CC(N)=O)NC(=O)[C@H](CC(N)=O)NC1=O [compound 366, Ac-W-T-I-C(3)-N-N-(2Nal)-(3Pya)-D-C(3)-W-P-[D-Lys(DOTA)]-NH2] (Ac-WTICNN[2Nal][3Pal]DCWP[dK](DOTA)-NH2; disulfide 4-10)
< 1 | CC[C@H](C)[C@H](NC(=O)[C@@H](NC(=O)[C@H](Cc1c[nH]c2ccccc12)NC(C)=O)[C@@H](C)O)C(=O)N[C@H]1CSSC[C@@H](C(=O)N[C@@H](Cc2c[nH]c3ccccc23)C(=O)N2CCC[C@H]2C(=O)N(C)CC(=O)N(C)CC(=O)N(C)CC(=O)N(C)CC(=O)N(C)CC(=O)N[C@H](CCCCNC(=O)CN2CCN(CC(=O)O)CCN(CC(=O)O)CCN(CC(=O)O)CC2)C(N)=O)NC(=O)[C@H](CC(=O)O)NC(=O)[C@H](Cc2cnc[nH]2)NC(=O)[C@H](Cc2ccc3ccccc3c2)NC(=O)[C@H](CC(N)=O)NC(=O)[C@H](CC(N)=O)NC1=O [compound 371, Ac-W-T-I-C(3)-N-N-(2Nal)-H-D-C(3)-W-P-(Sar)5-[D-Lys(DOTA)]-NH2] (Ac-WTICNN[2Nal]HDCWP[Sar][Sar][Sar][Sar][Sar][dK](DOTA)-NH2; disulfide 4-10)
< 1 | CC[C@H](C)[C@H](NC(=O)[C@@H](NC(=O)[C@H](Cc1c[nH]c2ccccc12)NC(C)=O)[C@@H](C)O)C(=O)N[C@H]1CSSC[C@@H](C(=O)N[C@@H](Cc2c[nH]c3ccccc23)C(=O)N2CCC[C@H]2C(=O)NCCCCCC(=O)NCCCCCC(=O)N[C@H](CCCCNC(=O)CN2CCN(CC(=O)O)CCN(CC(=O)O)CCN(CC(=O)O)CC2)C(N)=O)NC(=O)[C@H](CC(=O)O)NC(=O)[C@H](Cc2cnc[nH]2)NC(=O)[C@H](Cc2ccc3ccccc3c2)NC(=O)[C@H](CC(N)=O)NC(=O)[C@H](CC(N)=O)NC1=O [compound 372, Ac-W-T-I-C(3)-N-N-(2Nal)-H-D-C(3)-W-P-(Ahx)2-[D-Lys(DOTA)]-NH2] (Ac-WTICNN[2Nal]HDCWP[Ahx][Ahx][dK](DOTA)-NH2; disulfide 4-10)
< 1 | CC[C@H](C)[C@H](NC(=O)[C@@H](NC(=O)[C@H](Cc1c[nH]c2ccccc12)NC(C)=O)[C@@H](C)O)C(=O)N[C@H]1CSSC[C@@H](C(=O)N[C@@H](Cc2c[nH]c3ccccc23)C(=O)N2CCC[C@H]2C(=O)NC[C@H]2CC[C@H](C(=O)NC[C@H]3CC[C@H](C(=O)N[C@H](CCCCNC(=O)CN4CCN(CC(=O)O)CCN(CC(=O)O)CCN(CC(=O)O)CC4)C(N)=O)CC3)CC2)NC(=O)[C@H](CC(=O)O)NC(=O)[C@H](Cc2cnc[nH]2)NC(=O)[C@H](Cc2ccc3ccccc3c2)NC(=O)[C@H](CC(N)=O)NC(=O)[C@H](CC(N)=O)NC1=O [compound 373, Ac-W-T-I-C(3)-N-N-(2Nal)-H-D-C(3)-W-P-(Cyx)2-[D-Lys(DOTA)]-NH2] (Ac-WTICNN[2Nal]HDCWP[Trx][Trx][dK](DOTA)-NH2; disulfide 4-10)
< 1 | CC[C@H](C)[C@H](NC(=O)[C@@H](NC(=O)[C@H](Cc1c[nH]c2ccccc12)NC(C)=O)[C@@H](C)O)C(=O)N[C@H]1CSSC[C@@H](C(=O)N[C@@H](Cc2c[nH]c3ccccc23)C(=O)N2CCC[C@H]2C(=O)NCc2ccc(C(=O)N[C@H](CCCCNC(=O)CN3CCN(CC(=O)O)CCN(CC(=O)O)CCN(CC(=O)O)CC3)C(N)=O)cc2)NC(=O)[C@H](CC(=O)O)NC(=O)[C@H](Cc2c[nH]cn2)NC(=O)[C@H](Cc2ccc3ccccc3c2)NC(=O)[C@H](CC(N)=O)NC(=O)[C@H](CC(N)=O)NC1=O [compound 374, Ac-W-T-I-C(3)-N-N-(2Nal)-H-D-C(3)-W-P-(AMBX)-[D-Lys(DOTA)]-NH2] (Ac-WTICNN[2Nal]HDCWP[4Amb][dK](DOTA)-NH2; disulfide 4-10)
